Reference: ChEMBL document CHEMBL3091332, “Recycling antimalarial leads for cancer: Antiproliferative properties of N-cinnamoyl chloroquine analogues” (Bioorg Med Chem Lett, 2013)

Legend:
MCF7 = assay: Antiproliferative activity against human MCF7 cells after 2 days by sulforhodamine B assay; format: functional; conditions: MCF7, 48 h
Caco-2 = assay: Antiproliferative activity against human Caco2 cells after 2 days by sulforhodamine B assay; format: functional; conditions: Caco-2, 48 h
[1] = Antiproliferative activity against human HFF1 cells after 2 days by sulforhodamine B assay; format: cell-based, HFF-1
[2] = Antiproliferative activity against human MKN28 cells after 2 days by sulforhodamine B assay; format: functional; conditions: MKN-28, 48 h
[3] = target: Receptor tyrosine-protein kinase erbB-2 (Homo sapiens, UniProt P04626); assay: Inhibition of human HER2
Sequence of Receptor tyrosine-protein kinase erbB-2 (P04626 whole entry): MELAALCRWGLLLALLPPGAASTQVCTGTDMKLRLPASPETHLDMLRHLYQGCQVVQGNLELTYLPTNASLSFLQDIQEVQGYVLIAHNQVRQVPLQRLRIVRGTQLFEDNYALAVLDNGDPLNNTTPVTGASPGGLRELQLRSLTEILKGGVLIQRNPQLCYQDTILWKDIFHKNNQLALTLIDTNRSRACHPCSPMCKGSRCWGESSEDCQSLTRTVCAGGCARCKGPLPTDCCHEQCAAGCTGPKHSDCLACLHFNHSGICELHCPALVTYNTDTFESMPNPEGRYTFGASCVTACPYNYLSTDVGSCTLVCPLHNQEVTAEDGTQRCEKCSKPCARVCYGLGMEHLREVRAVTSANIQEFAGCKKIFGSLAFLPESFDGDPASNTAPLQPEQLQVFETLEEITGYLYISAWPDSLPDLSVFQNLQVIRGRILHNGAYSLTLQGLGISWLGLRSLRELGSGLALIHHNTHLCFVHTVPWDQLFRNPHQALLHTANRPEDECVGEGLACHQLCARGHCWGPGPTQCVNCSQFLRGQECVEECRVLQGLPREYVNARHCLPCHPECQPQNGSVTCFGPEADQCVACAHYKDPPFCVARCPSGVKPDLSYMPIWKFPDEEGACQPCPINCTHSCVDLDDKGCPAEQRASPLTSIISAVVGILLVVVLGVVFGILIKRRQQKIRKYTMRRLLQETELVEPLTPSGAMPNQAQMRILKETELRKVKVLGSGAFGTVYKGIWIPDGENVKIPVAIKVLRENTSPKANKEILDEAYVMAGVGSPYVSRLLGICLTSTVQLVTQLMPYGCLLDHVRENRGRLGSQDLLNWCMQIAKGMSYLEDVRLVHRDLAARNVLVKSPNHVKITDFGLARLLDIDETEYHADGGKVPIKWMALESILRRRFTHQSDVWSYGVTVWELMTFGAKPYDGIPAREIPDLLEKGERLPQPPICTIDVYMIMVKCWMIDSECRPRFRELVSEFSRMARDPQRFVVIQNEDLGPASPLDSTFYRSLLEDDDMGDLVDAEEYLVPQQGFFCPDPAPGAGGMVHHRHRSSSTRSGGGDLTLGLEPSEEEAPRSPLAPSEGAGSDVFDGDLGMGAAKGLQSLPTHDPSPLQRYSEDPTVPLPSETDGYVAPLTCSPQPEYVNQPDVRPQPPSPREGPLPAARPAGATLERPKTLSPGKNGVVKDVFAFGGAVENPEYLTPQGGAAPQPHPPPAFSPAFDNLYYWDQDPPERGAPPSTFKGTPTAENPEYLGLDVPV

| SMILES | GI50 (MCF7) [µM] | GI50 (Caco-2) [µM] | IC50 [3] [µM] | GI50 at 48 h [1] [µM] | GI50 [2] [µM] |
| --- | --- | --- | --- | --- | --- |
| CCOc1cc2ncc(C#N)c(Nc3ccc(OCc4ccccn4)cc3)c2cc1NC(=O)/C=C/CN(C)C | – | – | 0.059 | – | – |
| CC(C)c1ccc(/C=C/C(=O)NCCCCNc2ccnc3ccccc23)cc1 | 5.24 | 6.75 | – | 39.1 | 5.55 |
| COc1ccc(/C=C/C(=O)OCCCCNc2ccnc3cc(Cl)ccc23)cc1 | 5.08 | 17.3 | – | 75.2 | 6.6 |
| COc1ccc(/C=C/C(=O)NCCCCNc2ccncc2)cc1 | 77.1 | > 100 | – | > 100 | 84.5 |
| COc1cccc2c1C(=O)c1c(O)c3c(c(O)c1C2=O)C[C@@](O)(C(=O)CO)C[C@@H]3O[C@H]1C[C@H](N)[C@H](O)[C@H](C)O1 [DOXORUBICIN] | 0.31 | 0.32 | – | > 400 | 0.24 |
| CC(C)c1ccc(/C=C/C(=O)NCCCCCNc2ccnc3cc(Cl)ccc23)cc1 | 20.1 | 9.16 | – | > 100 | 14 |
| CC(C)c1ccc(/C=C/C(=O)NCCCCN2CCOCC2)cc1 | 32.7 | 29.6 | – | > 100 | 72.5 |
| CCN(CC)CCCC(C)Nc1ccnc2cc(Cl)ccc12 (stereo unspecified) [CHLOROQUINE] | 64.3 | 38.7 | – | > 100 | 44.4 |

The next lines start with results.

| GI50 (MCF7) [µM] | GI50 (Caco-2) [µM] | IC50 [3] [µM] | SMILES | GI50 at 48 h [1] [µM] | GI50 [2] [µM] |
| --- | --- | --- | --- | --- | --- |
| 14.8 | 25.4 | – | O=C(/C=C/c1cccc(F)c1)NCCCCNc1ccnc2cc(Cl)ccc12 | > 100 | 15.3 |
| 59.3 | 19.3 | – | O=C(/C=C/c1cccc([N+](=O)[O-])c1)NCCCCNc1ccnc2cc(Cl)ccc12 | > 100 | 16.2 |
| 25.2 | 30.7 | – | COc1ccc(/C=C/C(=O)NCCCCNc2ccnc3cc(Cl)ccc23)cc1 | > 100 | 16.9 |
| 8.09 | 11.9 | – | CC(C)c1ccc(/C=C/C(=O)NCCCCNc2ccnc3cc(Cl)ccc23)cc1 | > 100 | 22.3 |
| 14.8 | 24.1 | – | O=C(/C=C/c1ccccc1)NCCCCNc1ccnc2cc(Cl)ccc12 | > 100 | 16.2 |
| 5.24 | 44.1 | – | O=C(/C=C/c1ccc(F)cc1)NCCCNc1ccnc2cc(Cl)ccc12 | 44.8 | 34.7 |
| 13.3 | 11.9 | – | O=C(/C=C/c1ccccc1[N+](=O)[O-])NCCCCNc1ccnc2cc(Cl)ccc12 | > 100 | 15.1 |
| 12.5 | 15 | – | O=C(/C=C/c1ccc(F)cc1)NCCCCNc1ccnc2cc(Cl)ccc12 | > 100 | 11.8 |
